Test results: US20210395210A1, “INHIBITION OF BACTERIAL CHAPERONIN SYSTEMS” (THE TRUSTEES OF INDIANA UNIVERSITY, priority 2018, published 2021)
Where two headings read alike, the source gives them in different places.

Biological target: T1, E. coli GroEL/ES (Escherichia coli, UniProt P0A6F5)
T1 construct: made in house; host or cells: GroEL in E. coli DH5α; GroES in E. coli BL21 (DE3)
Assay: GroEL/ES-mediated dMDH refolding assay
Type: biochemical
Conditions: for log(IC50) GroEL/ES-dMDH Refolding: log of IC50 (μM scale), with standard deviation; for inhibition in the GroEL/ES-mediated refolding assays (in words): dMDH and dRho refolding assays; for selectivity for E. coli GroEL/ES over human HSP60/10 (in words): GroEL/ES-dMDH vs HSP60/10-dMDH IC50
Experimental: Reagent preparation: For these assays, four primary reagent stocks were prepared: 1) GroEUES-dMDH or HSP60/10-dMDH binary complex stock; 2) ATP initiation stock; 3) EDTA quench stock; 4) MDH enzymatic assay stock. Denatured MDH (dMDH) was prepared by 2-fold dilution of MDH (5 mg/ml, soluble pig heart MDH from Roche, product #10127248001) with denaturant buffer (7 M guanidine-HCl, 200 mM Tris, pH 7.4, and 50 mM DTT). MDH was completely denatured by incubating at room temperature for 45 min. The binary complex solutions were prepared by slowly adding the dMDH stock to a stirring stock with GroEL (or HSP60) in folding buffer (50 mM Tris-HCl, pH 7.4, 50 mM KCl, 10 mM MgCl2, and 1 mM DTT), followed by addition of GroES (or HSP10). The binary complex stocks were prepared immediately prior to dispensing into the assay plates and had final protein concentrations of 83.3 nM GroEL (Mr 800 kDa) or HSP60 (Mr 400 kDa), 100 nM GroES or HSP10 (Mr 70 kDa), and 20 nM dMDH in folding buffer. For the ATP initiation stock, ATP solid was diluted into folding buffer to a final concentration of 2.5 mM. Quench solution contained 600 mM EDTA (pH 8.0). The MDH enzymatic assay stock consisted of 20 mM sodium mesoxalate and 2.4 mM NADH in reaction buffer (50 mM Tris-HCl, pH 7.4, 50 mM KCl, and 1 mM DTT).
Assay Protocol: First, 30 μL aliquots of the GroEL/ES-dMDH or HSP60/10-dMDH binary complex stocks were dispensed into clear, 384-well polystyrene plates. […] The chaperonin-mediated refolding cycles were initiated by addition of 20 μL of ATP stock (reagent concentrations during refolding cycle: 50 nM GroEL or HSP60, 60 nM GroES or HSP10, 12 nM dMDH, 1 mM ATP, and compounds of 100 μM to 46 nM, 3-fold dilution series). The refolding reactions were incubated at 37° C. […] Next, the assay was quenched by addition of 10 μL of the EDTA to final concentration of 100 mM. […] A340 nm measurements were recorded at 0.5 minutes (start point) and at successive time points until the amount of NADH consumed reached ˜90% (end point, generally between 20-35 minutes). The differences between the start and end point A340 values were used to calculate the % inhibition of the GroEL/ES or HSP60/10 machinery by the compounds. […] Results presented represent the averages of IC50 values obtained from at least quadriplicate (duplicate of duplicate) replicates.
After generating the compound library, we next employed a series of well-established biochemical assays to evaluate compound inhibitory effects against the GroEUES chaperonin system (See FIG. 6 and FIG. 7). We used E. coli GroEUES as the surrogate chaperonin system for refolding of the reporter enzymes malate dehydrogenase (MDH) and rhodanese (Rho). Briefly, binary complexes are formed between GroEL and denatured MDH or Rho, which are then refolded to their native states upon addition of ATP and the GroES co-chaperonin. Enzymatic activities of refolded native MDH or Rho act as coupled reporters of GroEUES refolding functions since in the presence of chaperonin inhibitors, no functional reporter enzymes are generated.

[1] = read-out: Biochemical Assay IC50 GroEL/ES-dMDH refolding

T1 sequence (P0A6F5 2-548): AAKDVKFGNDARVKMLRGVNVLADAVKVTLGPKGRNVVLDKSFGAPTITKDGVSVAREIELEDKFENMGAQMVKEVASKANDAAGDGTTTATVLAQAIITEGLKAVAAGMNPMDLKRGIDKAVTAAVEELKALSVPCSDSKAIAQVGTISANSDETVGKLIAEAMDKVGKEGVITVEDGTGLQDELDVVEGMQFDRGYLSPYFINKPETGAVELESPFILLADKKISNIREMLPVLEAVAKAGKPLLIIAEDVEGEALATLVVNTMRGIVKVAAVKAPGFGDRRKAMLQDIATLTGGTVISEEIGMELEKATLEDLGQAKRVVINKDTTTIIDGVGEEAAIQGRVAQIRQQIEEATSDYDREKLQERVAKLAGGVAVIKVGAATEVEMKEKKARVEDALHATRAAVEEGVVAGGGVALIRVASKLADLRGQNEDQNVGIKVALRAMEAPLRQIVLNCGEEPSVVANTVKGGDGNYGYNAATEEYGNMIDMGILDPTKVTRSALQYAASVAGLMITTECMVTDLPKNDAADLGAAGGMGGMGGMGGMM

SMILES | log(IC50) GroEL/ES-dMDH Refolding | IC50 [1] [µM] | IC50 [µM] | inhibition in the GroEL/ES-mediated refolding assays (in words) | selectivity for E. coli GroEL/ES over human HSP60/10 (in words)
CC1(C)S[C@@H]2[C@H](NC(=O)[C@H](N)c3ccccc3)C(=O)N2[C@H]1C(=O)O [Ampicillin, ampicillin, reference compound] | >2 | > 100 |  |  | 
Cc1cc(C(C#N)c2ccc(Cl)cc2)c(Cl)cc1NC(=O)c1cc(I)cc(I)c1O (stereo not shown) [Closantel, closantel, reference compound] |  | 2.2 | 2.24 | potent GroEUES inhibitors | 
O=C(Nc1ccc(Sc2nc3ccccc3s2)c(Cl)c1)c1cc(Br)ccc1O [Compound 3, N-(4-(Benzo[d]thiazol-2-ylthio)-3-chlorophenyl)-5-bromo-2-hydroxybenzamide] | 1.57 ± 0.35 | 37 |  | moderate to potent inhibitors | selectively inhibit E. coli GroEUES over human HSP60/10
O=C(Nc1ccc(Sc2nc3ccccc3s2)c(Cl)c1)c1ccccc1O [Compound 4, N-(4-(Benzo[d]thiazol-2-ylthio)-3-chlorophenyl)-2-hydroxybenzamide] | 1.62 ± 0.32 | 42 |  |  | selectively inhibit E. coli GroEUES over human HSP60/10
O=C(Nc1ccc(Sc2nc3ccccc3s2)cc1)c1cccc(Br)c1O [Compound 6, N-(4-(Benzo[d]thiazol-2-ylthio)phenyl)-3-bromo-2-hydroxybenzamide] | 1.52 ± 0.21 | 33 |  | moderate to potent inhibitors | 
O=C(Nc1ccc(Sc2nc3ccccc3s2)cc1)c1cc(Br)ccc1O [Compound 7, N-(4-(Benzo[d]thiazol-2-ylthio)phenyl)-5-bromo-2-hydroxybenzamide] | 1.58 ± 0.34 | 38 |  | moderate to potent inhibitors | selectively inhibit E. coli GroEUES over human HSP60/10
O=C(Nc1cccc(Cl)c1)c1cc(Br)cc(Br)c1O [Compound 9, 3,5-Dibromo-N-(3-chlorophenyl)-2-hydroxybenzamide] | 1.38 ± 0.15 | 24 |  |  | 
O=C(Nc1cccc(Cl)c1)c1ccccc1O [Compound 12, N-(3-Chlorophenyl)-2-hydroxybenzamide] | >2 |  | > 100 |  | 
O=C(Nc1ccccc1)c1cc(Br)cc(Br)c1O [Compound 13, 3,5-Dibromo-2-hydroxy-N-phenylbenzamide] | 1.79 ± 0.10 | 61 |  |  | 
O=C(Nc1ccccc1)c1cccc(Br)c1O [Compound 14, 3-Bromo-2-hydroxy-N-phenylbenzamide] | >2 |  | > 100 |  | 
O=C(Nc1ccccc1)c1cc(Br)ccc1O [Compound 15, 5-Bromo-2-hydroxy-N-phenylbenzamide] | >2 |  | > 100 |  | 
O=C(Nc1ccccc1)c1ccccc1O [Compound 16, 2-Hydroxy-N-phenylbenzamide] | >2 | > 100 |  |  | 
O=C(Nc1ccc(Sc2nc3ccccc3s2)c(Cl)c1)c1cc(Br)cc(Br)c1 [Compound 17, N-(4-(Benzo[d]thiazol-2-ylthio)-3-chlorophenyl)-3,5-dibromobenzamide] |  |  | > 100 |  | 
O=C(Nc1ccc(Sc2nc3ccccc3s2)c(Cl)c1)c1cccc(Br)c1 [Compound 18, N-(4-(Benzo[d]thiazol-2-ylthio)-3-chlorophenyl)-3-bromobenzamide] |  |  | > 100 |  | 
O=C(Nc1ccc(Sc2nc3ccccc3s2)c(Cl)c1)c1ccccc1 [Compound 19, N-(4-(Benzo[d]thiazol-2-ylthio)-3-chlorophenyl)benzamide] |  |  | > 100 |  | 
O=C(Nc1ccc(Sc2nc3ccccc3s2)cc1)c1cc(Br)cc(Br)c1 [Compound 20, N-(4-(Benzo[d]thiazol-2-ylthio)phenyl)-3,5-dibromobenzamide] |  |  | > 100 |  | 
O=C(Nc1ccc(Sc2nc3ccccc3s2)cc1)c1cccc(Br)c1 [Compound 21, N-(4-(Benzo[d]thiazol-2-ylthio)phenyl)-3-bromobenzamide] |  |  | > 100 |  | 
O=C(Nc1ccc(Sc2nc3ccccc3s2)cc1)c1ccccc1 [Compound 22, N-(4-(Benzo[d]thiazol-2-ylthio)phenyl)benzamide] |  |  | > 100 |  | 

SMILES | log(IC50) GroEL/ES-dMDH Refolding | IC50 [1] [µM] | IC50 [µM] | inhibition in the GroEL/ES-mediated refolding assays (in words) | selectivity for E. coli GroEL/ES over human HSP60/10 (in words)
O=C(Nc1cccc(Cl)c1)c1cc(Br)cc(Br)c1 [Compound 23, 3,5-Dibromo-N-(3-chlorophenyl)benzamide] | >2 |  | > 100 |  | 
O=C(Nc1cccc(Cl)c1)c1cccc(Br)c1 [Compound 24, 3-Bromo-N-(3-chlorophenyl)benzamide] | >2 |  | > 100 |  | 
O=C(Nc1cccc(Cl)c1)c1ccccc1 [Compound 25, N-(3-Chlorophenyl)benzamide] | >2 |  | > 100 |  | 
O=C(Nc1ccccc1)c1cc(Br)cc(Br)c1 [Compound 26, 3,5-Dibromo-N-phenylbenzamide] | >2 |  | > 100 |  | 
O=C(Nc1ccccc1)c1cccc(Br)c1 [Compound 27, 3-Bromo-N-phenylbenzamide] | >2 |  | > 100 |  | 
COc1c(Br)cc(Br)cc1C(=O)Nc1ccc(Sc2nc3ccccc3s2)c(Cl)c1 [Compound 29, N-(4-(Benzo[d]thiazol-2-ylthio)-3-chlorophenyl)-3,5-dibromo-2-methoxybenzamide] |  |  | > 100 |  | 
COc1c(Br)cccc1C(=O)Nc1ccc(Sc2nc3ccccc3s2)c(Cl)c1 [Compound 30, N-(4-(Benzo[d]thiazol-2-ylthio)-3-chlorophenyl)-3-bromo-2-methoxybenzamide] |  |  | > 100 |  | 
COc1ccc(Br)cc1C(=O)Nc1ccc(Sc2nc3ccccc3s2)c(Cl)c1 [Compound 31, N-(4-(Benzo[d]thiazol-2-ylthio)-3-chlorophenyl)-5-bromo-2-methoxybenzamide] |  |  | > 100 |  | 
COc1ccccc1C(=O)Nc1ccc(Sc2nc3ccccc3s2)c(Cl)c1 [Compound 32, N-(4-(Benzo[d]thiazol-2-ylthio)-3-chlorophenyl)-2-methoxybenzamide] |  |  | > 100 |  | 
COc1c(Br)cc(Br)cc1C(=O)Nc1ccc(Sc2nc3ccccc3s2)cc1 [Compound 33, N-(4-(Benzo[d]thiazol-2-ylthio)phenyl)-3,5-dibromo-2-methoxybenzamide] |  |  | > 100 |  | 
COc1ccc(Br)cc1C(=O)Nc1ccc(Sc2nc3ccccc3s2)cc1 [Compound 35, N-(4-(Benzo[d]thiazol-2-ylthio)phenyl)-5-bromo-2-methoxybenzamide] |  |  | > 100 |  | 
COc1ccccc1C(=O)Nc1ccc(Sc2nc3ccccc3s2)cc1 [Compound 36, N-(4-(Benzo[d]thiazol-2-ylthio)phenyl)-2-methoxybenzamide] |  |  | > 100 |  | 
COc1c(Br)cc(Br)cc1C(=O)Nc1cccc(Cl)c1 [Compound 37, 3,5-Dibromo-N-(3-chlorophenyl)-2-methoxybenzamide] | >2 |  | > 100 |  | 
COc1c(Br)cccc1C(=O)Nc1cccc(Cl)c1 [Compound 38] | >2 |  | > 100 |  | 
COc1ccc(Br)cc1C(=O)Nc1cccc(Cl)c1 [Compound 39, 5-Bromo-N-(3-chlorophenyl)-2-methoxybenzamide] | >2 |  | > 100 |  | 
COc1ccccc1C(=O)Nc1cccc(Cl)c1 [Compound 40, N-(3-Chlorophenyl)-2-methoxybenzamide] | >2 |  | > 100 |  | 
COc1c(Br)cc(Br)cc1C(=O)Nc1ccccc1 [Compound 41, 3,5-Dibromo-2-methoxy-N-phenylbenzamide] | >2 |  | > 100 |  | 
